Measured values taken from publication PMC8379256, “A xanthene derivative, DS20060511, attenuates glucose intolerance by inducing skeletal muscle-specific GLUT4 translocation in mice” (Communications Biology, 2021).
Where “and” joins values, the source holds several entries; their conditions need not be identical. Equal entries are not always repeated.

What was measured:
[1] = system: 3T3-L1-GLUT4myc adipocytes; test: GLUT4 translocation: cell surface GLUT4myc by anti-Myc antibody assay in 3T3-L1-GLUT4myc adipocytes; type: cell-based; details: for Ratio: GLUT4 translocation normalized to vehicle; for A - background / A: Abs. (450 nm): GLUT4 translocation; for GLUT4 translocation (in words): differentiated 3T3-L1-GLUT4myc adipocytes, Fig. 1c
Method: The L6-GLUT4myc rat myoblast cell line was obtained from Dr. Amira Klip and Dr. Philip Bilan, through a license granted by The Hospital for Sick Children, 555 University Avenue, Toronto, Ontario, Canada M5G 1 × 8; or purchased from Kerafast, Boston, MA (ESK202)[43]. The 3T3-L1-GLUT4myc fibroblast cell line was provided by Dr. Tomoyuki Yuasa, Tokushima University[44]. L6-GLUT4myc myoblasts were grown in MEMα (32571036, Thermo Fisher Scientific, Waltham, MA) supplemented with 10% FBS and 1% antibiotics, and then induced to differentiate into myotubes in MEMα supplemented with 2% FBS and 1% antibiotics for 5–8 days. 3T3-L1-GLUT4myc fibroblasts were induced to differentiate into adipocytes as described previously,[45] with minor modifications. Briefly, cells were grown to confluence in growth medium: DMEM (10569010, Thermo Fisher Scientific) supplemented with 10% FBS and 1% antibiotics, and then induced to differentiate into adipocytes in growth medium supplemented with 1 μM dexamethasone, 2 μM rosiglitazone, 0.5 mM isobutylmethylxanthine, and 10 μg mL^−1 insulin for 2 days. The adipocytes were then cultured in growth medium supplemented with 10 μg mL^−1 insulin for a few days before being used for the experiments.
Cell surface GLUT4 levels in the L6-GLUT4myc myoblasts and myotubes were determined by antibody binding assay as described previously[43],[44], with minor modifications. Briefly, cells in a 96- or 24-well plate were starved in serum-free MEMα (0.1% BSA and 1% antibiotics) for 3 h and then treated with the indicated concentrations of DS20060511 and/or insulin for 30 min at 37 °C. After fixation with 4% paraformaldehyde, the cells were incubated with 1% glycine in PBS at 4 °C for 10 min, and blocked with 10% normal goat serum and 3% BSA in PBS at 4 °C for 30 min. The cells were then incubated with anti-c-Myc antibody (sc-40, 1:500) diluted with blocking buffer at 4 °C for 1 h, washed with cold PBS(+), incubated with HRP-conjugated anti-mouse IgG diluted with blocking buffer at 4 °C for 30 min, and then washed again. SuperSignal ELISA Pico Chemiluminescent Substrate (Thermo Fisher Scientific) was added and the luminescent signal was measured. To investigate GLUT4 translocation in the 3T3-L1-GLUT4myc adipocytes, the cells were prepared in a 24-well plate, and anti-c-Myc antibody (sc-789, 1:1000), HRP-conjugated anti-rabbit IgG and SIGMAFAST OPD regent (Sigma–Aldrich) were added for optical detection of the cell surface GLUT4myc levels. The GLUT4 translocation activity was normalized to that in the vehicle-treated group.

[2] = system: isolated skeletal muscles; test: 2-DG uptake with 100 nM insulin in isolated muscles from C57BL/6 mice; parameters: species or system mouse; details: for 2DOG Trn / IC 2DOG / Raio (2-DG uptake relative to untreated control): isolated muscles, individual muscles #1-3; for 2DOG Trn / IC 2DOG: 2DG 1 mM, incubation 10 min
Method: Arrowheads indicate the characteristic ruffled structure of the polymerized actin and actin-associated surface GLUT4. d GLUT4 translocation activity of 30 μM DS20060511 or 100 nM insulin in the presence of the actin polymerization inhibitor, Latrunculin B, at the indicated concentrations. Values shown are means ± SEM, n = 3. **P < 0.01 vs. 0 nM Latrunculin B by one-way ANOVA followed by Dunnett’s test. e Concentration-dependent insulin-stimulated GLUT4 translocation in L6-GLUT4myc myotubes with or without 30 μM DS20060511 (n = 3). f Concentration-dependent DS20060511-stimulated 2-DG uptake with 100 nM insulin in isolated muscles from C57BL/6 mice (n = 3). Values shown are means ± SEM. ***P < 0.001 by one-way ANOVA followed by Tukey’s test. g Blood glucose levels during ITT in STZ-treated C57BL/6 mice (n = 6–7). Vehicle or indicated dose of DS20060511 was given orally at the same time as 0.1 U kg^−1 insulin injection intraperitoneally. Values shown are means ± SEM. *P < 0.05 vs. vehicle by one-way ANOVA followed by Dunnett’s test. c Scale bar in all panels, 5 μm. Uncropped blots for a and b can be found in Supplementary Fig. 6.
The soleus or EDL muscle was removed from anesthetized mice (isoflurane anesthesia) that had been denied access to food overnight, and incubated with oxygenated (95% O2/5% CO2) Krebs-Henseleit Bicarbonate (KHB) buffer (118.1 mM NaCl, 4.7 mM KCl, 1.1 mM KH2PO4, 1.2 mM MgSO4, 2.5 mM CaCl2, and 25 mM NaHCO3, pH7.4) in the presence of 11.1 mM glucose at 37 °C. The muscle specimens were then treated with the indicated concentrations of the compounds in KHB buffer containing 11.1 mM glucose and 8 mM mannitol for 10 min at 37 °C. Thereafter, the muscles were rinsed with KHB buffer containing 8 mM mannitol and the compounds for 5 min at 37 °C. Lastly, the muscles were treated with the compounds in KHB buffer containing 1 mM 2-DG (with 0.3 μCi mL^−1 [^3H]-2-DG) and 8 mM mannitol (with 0.03 μCi mL^−1 [^14C]-mannitol) for 10 min at 37 °C. After the muscle specimens were washed, they were lysed with 1 N NaOH and neutralized with 1 N HCl. The ^14C- and ^3H-specific activities were counted with a liquid scintillation counter. The specific uptake of 2-DG was calculated by subtracting the nonspecific uptake of mannitol from the total 2-DG uptake. To investigate the effects of muscle contraction, muscle contraction was induced by electrical stimulation with 5 Hz (1 ms pulse duration, 100 V) for 10 min (SEN-5201, Nihon Koden, Tokyo, Japan).

L6-GLUT4myc myotubes = test: GLUT4 translocation: cell surface GLUT4myc by anti-Myc antibody assay in L6-GLUT4myc myotubes; type: cell-based, rat
[3] = DS20060511 1 μM + insulin 100 nM
[4] = DS20060511 10 μM + insulin 100 nM
[5] = insulin 100 nM alone (DS20060511 0 μM)

How did the Ratio ([1]; DS20060511 0.1 μM) turn out when `COc1ccc2c(C)c(C(=O)O)ccc2c1C1C2=C(CC(C)(C)CC2=O)OC2=C1C(=O)CC(C)(C)C2` [DS20060511] was run?
The Ratio was 0.99 and 1.02 and 1.06.

And the Ratio ([1]; DS20060511 1 μM)?
Its Ratio is 0.93 and 1.02 and 0.98.

What about the Ratio ([1]; DS20060511 10 μM) of the same compound?
The Ratio was 0.96 and 1.08 and 1.04.

And the A - background ([1]; DS20060511 0.1 μM)?
The A - background was 0.1225 and 0.1275 and 0.1195.

What about the “A: Abs. (450 nm)” value ([1]; DS20060511 0.1 μM) of the same compound?
Its value is 0.206 and 0.211 and 0.203.

And the A - background ([1]; DS20060511 1 μM)?
The A - background was 0.1225 and 0.1175 and 0.1115.

And the “A: Abs. (450 nm)” value ([1]; DS20060511 1 μM)?
The value was 0.206 and 0.201 and 0.195.

What about the A - background ([1]; DS20060511 10 μM) of the same compound?
Its A - background is 0.1305 and 0.1255 and 0.1155.

And the “A: Abs. (450 nm)” value ([1]; DS20060511 10 μM)?
The value was 0.214 and 0.209 and 0.199.

And the “GLUT4 translocation (in words)” value [1]?
The value was “almost no effect on GLUT4 translocation”.

What about the “2-DG uptake induced by insulin, concomitant DS20060511” value ([2]; 100 nM insulin, isolated skeletal muscles, Fig. 4f) of the same compound?
Its value is “additively increased”.

And the “2DOG Trn” value [2, 3]?
Its value is 935 nmol/ml and 93.5 µM/min and 1062 nmol/ml and 106.2 µM/min and 1054 nmol/ml and 105.4 µM/min.

What about the “IC 2DOG” value [2, 3] of the same compound?
The value was 559 nmol/g and 682 nmol/g and 640 nmol/g.

What about the “Raio (2-DG uptake relative to untreated control)” value [2, 3] of the same compound?
Its value is 2.70 and 3.07 and 3.04.

And the “2DOG Trn” value [2, 4]?
Its value is 1281 nmol/ml and 128.1 µM/min and 1209 nmol/ml and 120.9 µM/min and 1137 nmol/ml and 113.7 µM/min.

What about the “IC 2DOG” value [2, 4] of the same compound?
The value was 656 nmol/g and 556 nmol/g and 565 nmol/g.

What about the “A: Abs. (450 nm)” value (L6-GLUT4myc myotubes; DS20060511 0.1 μM, replicates 1-3) of the same compound?
Its value is 0.190 (2×) and 0.196.

Which results are given for “Insulin: Insulin (Humulin, Eli Lilly) in the in vivo experiments; Insulin solution human (I9278, Sigma–Aldrich) in the in vitro experiments”?
Ratio ([1]; Insulin 1 nM): 1.07 and 1.09 and 1.12; Ratio ([1]; Insulin 10 nM): 1.31 and 1.33 and 1.41; Ratio ([1]; Insulin 100 nM): 1.41 and 1.46 and 1.56; A - background ([1]; Insulin 1 nM): 0.1315 and 0.1345 and 0.1295; A: Abs. (450 nm) ([1]; Insulin 1 nM): 0.215 and 0.218 and 0.213; A - background ([1]; Insulin 10 nM): 0.1605 and 0.1705 and 0.1575; A: Abs. (450 nm) ([1]; Insulin 10 nM): 0.244 and 0.254 and 0.241; A - background ([1]; Insulin 100 nM): 0.1755 and 0.1885 and 0.1705; A: Abs. (450 nm) ([1]; Insulin 100 nM): 0.259 and 0.272 and 0.254; GLUT4 translocation (in words) [1]: increased GLUT4 translocation; 2DOG Trn [2, 5]: 573 nmol/ml and 57.3 µM/min and 622 nmol/ml and 62.2 µM/min and 629 nmol/ml and 62.9 µM/min; IC 2DOG [2, 5]: 376 nmol/g and 331 nmol/g and 410 nmol/g; Raio (2-DG uptake relative to untreated control) [2, 5]: 1.65 and 1.79 and 1.82; A: Abs. (450 nm) (L6-GLUT4myc myotubes; Insulin 100 nM): 0.287 and 0.285 and 0.286
